Assays:
Test in all cases: relative viability (nuclei count vs DMSO), 5 days (fraction); higher = more cells survive
TPCA-1 + Linsitinib = compound: C1=CC(=CC=C1C2=CC(=C(S2)NC(=O)N)C(=O)N)F [TPCA-1] + C[C@]1(O)C[C@@H](c2nc(-c3ccc4ccc(-c5ccccc5)nc4c3)c3c(N)nccn32)C1 [Linsitinib] (partner 1 µM)
In short: (§1)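 For relative viability, nuclei counts in treated wells were divided by those in vehicle wells. Lung cancer cell lines had been pin-tool dosed in 1536-well plates the day after seeding and cultured for 5 days, then fixed and stained in one step (final 0.05% Triton X-100, 1% formaldehyde, 1 ug/ml Hoechst) and imaged at 4×. Doses were one drug alone or a fixed anchor-drug dose plus five library-drug doses (not always all listed) in √10 steps, and values are duplicate-plate medians.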

TPCA-1 + Pictilisib = compound: C1=CC(=CC=C1C2=CC(=C(S2)NC(=O)N)C(=O)N)F [TPCA-1] + CS(=O)(=O)N1CCN(Cc2cc3nc(-c4cccc5[nH]ncc45)nc(N4CCOCC4)c3s2)CC1 [Pictilisib] (partner 1 µM)
In short: as §1

[1] = compound: C[C@]12O[C@H](C[C@]1(O)CO)n1c3ccccc3c3c4c(c5c6ccccc6n2c5c31)CNC4=O [Lestaurtinib] + Nc1nc2[nH]cc(CCc3ccc(C(=O)N[C@@H](CCC(=O)O)C(=O)O)cc3)c2c(=O)[nH]1 [Pemetrexed] (partner 0.2 µM)
In short: as §1

[2] = compound: C[C@]12O[C@H](C[C@]1(O)CO)n1c3ccccc3c3c4c(c5c6ccccc6n2c5c31)CNC4=O [Lestaurtinib] + CC(=O)c1c(C)c2cnc(Nc3ccc(N4CCNCC4)cn3)nc2n(C2CCCC2)c1=O [Palbociclib] (partner 0.5 µM)
In short: as §1

| Cell Line | relative viability (TPCA-1 + Linsitinib; first compound 0.04 µM) | relative viability (TPCA-1 + Linsitinib; first compound 0.1265 µM) | relative viability (TPCA-1 + Linsitinib; first compound 0.4 µM) | relative viability (TPCA-1 + Linsitinib; first compound 1.265 µM) | relative viability (TPCA-1 + Linsitinib; first compound 4 µM) | relative viability (TPCA-1 + Pictilisib; first compound 0.04 µM) | relative viability (TPCA-1 + Pictilisib; first compound 0.1265 µM) | relative viability (TPCA-1 + Pictilisib; first compound 0.4 µM) | relative viability (TPCA-1 + Pictilisib; first compound 1.265 µM) | relative viability (TPCA-1 + Pictilisib; first compound 4 µM) | relative viability ([1]; first compound 0.005 µM) | relative viability ([1]; first compound 0.01581 µM) | relative viability ([1]; first compound 0.05 µM) | relative viability ([1]; first compound 0.1581 µM) | relative viability ([1]; first compound 0.5 µM) | relative viability ([2]; first compound 0.005 µM) | relative viability ([2]; first compound 0.01581 µM) | relative viability ([2]; first compound 0.05 µM) | relative viability ([2]; first compound 0.1581 µM) | relative viability ([2]; first compound 0.5 µM) |
| --- | --- | --- | --- | --- | --- | --- | --- | --- | --- | --- | --- | --- | --- | --- | --- | --- | --- | --- | --- | --- |
| NCI-H1437 | 1.17 | 0.936 | 1.02 | 0.926 | 0.754 | 0.508 | 0.439 | 0.423 | 0.538 | 0.29 | 0.274 | 0.305 | 0.293 | 0.23 | 0.238 | 0.35 | 0.371 | 0.369 | 0.364 | 0.415 |
| NCI-H838 | 1.06 | 0.868 | 0.962 | 0.886 | 0.811 | 0.547 | 0.429 | 0.452 | 0.325 | 0.387 | 0.263 | 0.272 | 0.231 | 0.197 | 0.126 | 0.209 | 0.204 | 0.196 | 0.194 | 0.147 |
| NCI-H1666 | 0.756 | 0.688 | 0.785 | 0.993 | 0.723 | 0.419 | 0.35 | 0.412 | 0.561 | 0.404 | 0.988 | 0.92 | 0.948 | 0.95 | 0.707 | 0.705 | 0.704 | 0.638 | 0.74 | 0.646 |
| NCI-H1944 | 1.24 | 1.13 | 1.2 | 1.13 | 0.987 | 0.384 | 0.326 | 0.343 | 0.312 | 0.258 | 0.663 | 0.595 | 0.492 | 0.409 | 0.25 | 0.334 | 0.332 | 0.286 | 0.248 | 0.292 |
| NCI-H2023 | 0.706 | 0.721 | 0.765 | 0.559 | 0.409 | 0.264 | 0.177 | 0.237 | 0.176 | 0.115 | 0.292 | 0.285 | 0.201 | 0.153 | 0.0898 | 0.402 | 0.316 | 0.384 | 0.261 | 0.121 |
| NCI-H1755 | 0.978 | 0.941 | 1 | 1 | 0.852 | 0.406 | 0.344 | 0.426 | 0.209 | 0.204 | 0.478 | 0.463 | 0.41 | 0.36 | 0.353 | 0.446 | 0.427 | 0.464 | 0.376 | 0.382 |
| NCI-H23 | 0.537 | 0.559 | 0.759 | 0.602 | 0.549 | 0.529 | 0.342 | 0.519 | 0.5 | 0.184 | 0.622 | 0.787 | 0.503 | 0.449 | 0.292 | 0.578 | 0.624 | 0.527 | 0.5 | 0.274 |
| 201T | 1.03 | 0.982 | 1.09 | 1.09 | 0.835 | 0.733 | 0.66 | 0.687 | 0.663 | 0.632 | 0.34 | 0.342 | 0.317 | 0.279 | 0.251 | 0.398 | 0.45 | 0.364 | 0.405 | 0.399 |
| NCI-H1734 | 0.992 | 0.729 | 0.878 | 0.829 | 0.89 | 0.53 | 0.353 | 0.447 | 0.518 | 0.264 | 0.439 | 0.392 | 0.402 | 0.397 | 0.178 | 0.352 | 0.255 | 0.338 | 0.331 | 0.197 |
| NCI-H520 | 1.16 | 0.832 | 0.989 | 0.838 | 0.921 | 0.351 | 0.242 | 0.307 | 0.319 | 0.319 | 0.772 | 0.678 | 0.593 | 0.369 | 0.318 | 0.262 | 0.234 | 0.201 | 0.171 | 0.158 |
| NCI-H1355 | 0.99 | 0.709 | 0.737 | 0.711 | 0.667 | 0.487 | 0.325 | 0.427 | 0.227 | 0.224 | 1.1 | 1.08 | 0.928 | 0.754 | 0.607 | 0.455 | 0.403 | 0.332 | 0.273 | 0.254 |
| NCI-H1915 | 1.16 | 1.12 | 1.15 | 1.04 | 1.03 | 1.27 | 0.906 | 1.05 | 0.876 | 0.477 | 0.589 | 0.432 | 0.458 | 0.447 | 0.205 | 0.564 | 0.719 | 0.481 | 0.323 | 0.231 |
| BEN | 0.973 | 0.728 | 1 | 0.877 | 0.692 | 0.663 | 0.449 | 0.516 | 0.789 | 0.441 | 0.782 | 0.841 | 0.663 | 0.555 | 0.358 | 0.483 | 0.537 | 0.467 | 0.432 | 0.399 |
| NCI-H3122 | 1.11 | 0.983 | 0.981 | 0.985 | 1.02 | 0.725 | 0.511 | 0.603 | 0.612 | 0.595 | 0.227 | 0.205 | 0.193 | 0.216 | 0.187 | 0.201 | 0.21 | 0.2 | 0.229 | 0.22 |
| SK-MES-1 | 1.17 | 0.985 | 1.01 | 0.859 | 0.634 | 0.403 | 0.316 | 0.305 | 0.255 | 0.276 | 0.982 | 0.918 | 0.506 | 0.413 | 0.26 | 0.329 | 0.324 | 0.266 | 0.337 | 0.228 |
| HOP-62 | 0.96 | 0.676 | 0.921 | 1.12 | 0.973 | 0.964 | 0.57 | 0.734 | 0.123 | 0.186 | 0.269 | 0.322 | 0.309 | 0.339 | 0.22 | 0.491 | 0.539 | 0.496 | 0.468 | 0.335 |
